# Test system: G. vag strain 14.2
# Test: antibiotic synergy testing, checkerboard cross dilution method in broth cultures
# Type: cell-based, Gardnerella vaginalis
# Details: Gardnerella vaginalis, 14.2; 32 mg/mL clindamycin, 24 hr; read-out: growth inhibited
compound,measurement,value
"CCC[C@@H]1C[C@@H](C(=O)N[C@@H]([C@H]2O[C@H](SC)[C@H](O)[C@@H](O)[C@H]2O)[C@H](C)Cl)N(C)C1 [clindamycin, reference compound]",inhibition at 32000 µg/mL,27.4%

# Source: patent US20230293578A1, “TREATMENT OF BACTERIAL VAGINOSIS” (priority 2020, published 2023)
